The results in this text go back to paper PMC9320521, “Detection of Unprecedented CYP74 Enzyme in Mammal: Hydroperoxide Lyase CYP74C44 of the Bat Sturnira hondurensis” (International Journal of Molecular Sciences, 2022).

The test system of this test is CYP74C44 (ShHPL). Briefly: UV absorbance decrease at […] nm. It is filed as biochemical, Sturnira hondurensis. The conditions noted are these: Na phosphate buffer pH 7.0, 25 °C, 5 to 150 μM substrate.
A word on the Km: it is the concentration of substrate that gives half-maximal velocity. Turning to `CCCCC/C=C\C=C\[C@H](CCCCCCCC(=O)O)OO` [9-HPOD, (9S,10E,12Z)-9-Hydroperoxy-10,12-octadecadienoic], the Km is 46.6 ± 7.2 µM.
As for `CC/C=C\C/C=C\C=C\[C@H](CCCCCCCC(=O)O)OO` [9-HPOT, (9S,10E,12Z,15Z)-9-hydroperoxy-10,12,15-octadecatrienoic], the Km turned out to be 20.9 ± 5.6 µM.
Turning to `CCCCC[C@@H](/C=C/C=C\CCCCCCCC(=O)O)OO` [13-HPOD, (9Z,11E,13S)-13-hydroperoxy-9,11-octadecadienoic], the Km was 57.9 ± 13.3 µM.
Regarding `CC/C=C\C[C@@H](/C=C/C=C\CCCCCCCC(=O)O)OO` [13-HPOT, (9Z,11E,13S,15Z)-13-hydroperoxy-9,11,15-octadecatrienoic], the Km turned out to be 28.4 ± 6.7 µM.
The value for `CC/C=C\C[C@@H](/C=C/C=C\C/C=C\C/C=C\CCCC(=O)O)OO` [15-HPEPE] was 8.17 ± 1.6 µM.
